Results: US9133140B2, “Cycloalkylamne derivatives” (Daiichi Sankyo Company, Limited, priority 2008, dated 2015)
Counter-ions that a name gives are not always drawn. Like-named read-outs stand apart in the source and are kept apart here.

Key:
human CaSR = molecular target: T1, human CaSR (Homo sapiens, UniProt P41180); assay: Human CaSR activity measurement test (intracellular calcium in TT cells); assay type: cell-based; settings: [EC50 of test compound]/[EC50 of Compound A], intracellular calcium fluorescence
T1 construct: TT cells are cell lines that express human CaSR; endogenous in cells; host or cells: TT cells (human medullary thyroid carcinoma cell line)
T1 sequence (P41180 20-1078): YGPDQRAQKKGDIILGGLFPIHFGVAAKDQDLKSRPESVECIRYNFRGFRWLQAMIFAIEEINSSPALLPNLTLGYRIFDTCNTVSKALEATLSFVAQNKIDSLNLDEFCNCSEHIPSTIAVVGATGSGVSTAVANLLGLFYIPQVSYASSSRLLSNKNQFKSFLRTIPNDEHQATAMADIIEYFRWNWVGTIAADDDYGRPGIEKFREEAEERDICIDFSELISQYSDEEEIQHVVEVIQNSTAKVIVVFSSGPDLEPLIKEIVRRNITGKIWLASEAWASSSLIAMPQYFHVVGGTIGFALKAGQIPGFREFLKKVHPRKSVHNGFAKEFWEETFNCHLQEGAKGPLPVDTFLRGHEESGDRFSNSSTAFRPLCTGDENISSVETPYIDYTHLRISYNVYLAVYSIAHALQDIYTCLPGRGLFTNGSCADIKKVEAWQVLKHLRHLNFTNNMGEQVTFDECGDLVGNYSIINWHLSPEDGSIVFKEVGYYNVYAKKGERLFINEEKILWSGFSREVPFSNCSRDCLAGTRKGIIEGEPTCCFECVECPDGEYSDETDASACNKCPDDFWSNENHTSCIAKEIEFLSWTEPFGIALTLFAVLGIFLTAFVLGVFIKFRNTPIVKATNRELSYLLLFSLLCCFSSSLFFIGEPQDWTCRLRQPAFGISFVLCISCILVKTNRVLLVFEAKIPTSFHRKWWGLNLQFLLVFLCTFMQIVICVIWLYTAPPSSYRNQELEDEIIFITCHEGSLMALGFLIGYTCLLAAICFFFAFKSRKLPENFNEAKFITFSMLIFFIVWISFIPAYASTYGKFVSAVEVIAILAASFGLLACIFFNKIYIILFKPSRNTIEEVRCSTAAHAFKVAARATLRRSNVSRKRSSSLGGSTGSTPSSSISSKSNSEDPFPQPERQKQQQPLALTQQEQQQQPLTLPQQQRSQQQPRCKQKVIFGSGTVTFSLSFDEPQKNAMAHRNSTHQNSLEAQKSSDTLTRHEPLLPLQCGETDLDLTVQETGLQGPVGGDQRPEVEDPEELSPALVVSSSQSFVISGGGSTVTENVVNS
Procedure: It is reported that human medullary thyroid carcinoma cell lines TT cells are cell lines that express human CaSR, and when CaSR is activated by extracellular calcium ions or the like, intracellular calcium ion concentration increases (Endocrinology 137: 3842-3848, 1996). Accordingly, an activating action of the test compounds with respect to human CaSR was evaluated by using the change in intracellular calcium concentration of TT cells as an indicator. TT cells were inoculated onto a black well/clear bottom 96 well plate (poly-D-lysine coat: manufactured by BD biosciences), and were cultured for approximately 24 hours in a F-12 Nutrient Mixture (Kaighn's modification) culture media containing 10% calf serum and 0.5% antibiotic antimycotic. […] Then, the plate was allowed to stand for 1 hour at 37° C. Subsequently, the above-mentioned plate was placed onto FlexStation (manufactured by Molecular Device) or FlexStation 3 (manufactured by Molecular Device), and fluorescence intensity before and after treatment with the test compound dissolved in a buffer for measurement (126 mM NaCl, 4 mM KCl, 1 mM MgCl2, 20 mM HEPES (pH 7.4), 5.6 mM glucose, 2 mM CaCl2) was measured. […] Nagano, Pharmacol. […] WO 1996/12697) as a comparative compound, by conducting a similar procedure. From the following equation, the human CaSR activity of each of the test compounds was calculated as the relative activity with respect to Compound A. Relative activity with respect to Compound A=[EC50 of test compound]/[EC50 of Compound A]

[1] = tested on: calcium ion concentration in the blood; assay: Measurement test for concentration of parathyroid hormone and calcium ion in rat blood; assay type: in vivo; settings: read-out: reduction of calcium concentration in the blood
Procedure: Three male SD rats (manufactured by Japan SLC, Inc.) were orally administered with the test compound, and effects on the concentration of parathyroid hormone (PTH) in the blood and concentration of the calcium ion in the blood were studied.
The test compound was administered by dissolving or suspending it in a 0.5% methyl cellulose 400 (MC) solution or 0.5% MC solution containing 10% of ethanol. (In addition, Compound A used in Test Example 1 was administered as a MC suspension by dosage of 30 mg/kg, and was studied as a comparative example.) Blood was collected from the jugular vein under anesthesia with halothane or isoflurane, before administration of the test compound, and 2, 4, 6 or 8 and 24 hours after administration. Calcium ion concentration in the blood was measured using cartridge EG7+(manufactured by Fuso Chemical Co., Ltd.) and i-STAT 300F (manufactured by Fuso Chemical Co., Ltd.). In addition, plasma intact PTH concentration was measured using Rat intact PTH ELISA kit (manufactured by Immutopics).
The transition of calcium ion concentration in the blood over time from before administration to 24 hours after administration of each of the test compounds was plotted, and the decrease in calcium ion concentration in the blood from the value before administration was calculated as an area value.

[2] = male SD rats, oral, 10 mg/kg, 4 hours after administration

Row | Relative activity with respect to Compound A (human CaSR) | Structure (SMILES) | other results
1 | 0.42 | Cc1ccc([C@@H](C)NC2CC[C@@H](c3ccc(OCC(=O)O)cc3)C2)c2ccccc12 (stereo partly drawn) [Example 22, {4-[(1R)-3-{[(1R)-1-(4-Methylnaphthalen-1-yl)ethyl]amino}cyclopentyl]phenoxy}acetic acid] | 
2 | 0.27 | C[C@@H](N[C@H]1CC[C@@H](c2ccc(-c3nn[nH]n3)cc2)C1)c1ccc(F)c2ccccc12 [Example 26, (1S,3R)-N-[(1R)-1-(4-Fluoronaphthalen-1-yl)ethyl]-3-[4-(2H-tetrazol-5-yl)phenyl]cyclopentanamine hydrochloride] | 
3 | 0.26 | Cc1cc([C@@H]2CC[C@H](N[C@H](C)c3cccc4ccccc34)C2)ccc1OCC(=O)O [Example 32, {2-Methyl-4-[(1R,3S)-3-{[(1R)-1-(naphthalen-1-yl)ethyl]amino}cyclopentyl]phenoxy}acetic acid hydrochloride] | 
4 | 0.10 | C[C@@H](N[C@H]1CC[C@@H](c2ccc(SCC(=O)O)cc2)C1)c1ccc(F)c2ccccc12 [Example 37, ({4-[(1R,3S)-3-{[(1R)-1-(4-Fluoronaphthalen-1-yl)ethyl]amino}cyclopentyl]phenyl}thio)acetic acid hydrochloride] | 
5 | 0.13 | C[C@@H](N[C@H]1CC[C@@H](c2ccc(OCc3nn[nH]n3)cc2)C1)c1cccc2ccccc12 [Example 38, (1S,3R)-N-[(1R)-1-(Naphthalen-1-yl)ethyl]-3-[4-(2H-tetrazol-5-ylmethoxy)phenyl]cyclopentanamine hydrochloride] | 
6 | 0.07 | C[C@@H](N[C@H]1CC[C@@H](c2ccc(OCc3nn[nH]n3)cc2)C1)c1ccc(F)c2ccccc12 [Example 39, (1S,3R)-N-[(1R)-1-(4-Fluoronaphthalen-1-yl)ethyl]-3-[4-(2H-tetrazol-5-ylmethoxy)phenyl]cyclopentanamine hydrochloride] | 

Continued, molecule first:

Row | Structure (SMILES) | Relative activity with respect to Compound A (human CaSR) | other results
7 | C[C@@H](NC1CC[C@@H](c2ccc(OCC(=O)O)cc2)C1)c1ccc(F)c2ccccc12 (mixture of isomers) [Example 16, {4-[(1R)-3-{[(1R)-1-(4-Fluoronaphthalen-1-yl)ethyl]amino}cyclopentyl]phenoxy}acetic acid] | 0.72 | inhibition in vivo at 10 mg/kg [1, 2]: ≥ 30%
8 | C[C@@H](NCCCc1cccc(C(F)(F)F)c1)c1cccc2ccccc12 [Compound A, ((R)-1-naphthalen-1-yl-ethyl)-[3-(3-trifluoromethyl-phenyl)-propyl]-amine monohydrochloride, reference compound] |  | inhibition in vivo at 30 mg/kg ([1]; male SD rats, oral, 30 mg/kg, 4 hours after administration): 15 to 30%
9 | C[C@@H](N[C@H]1CC[C@@H](c2cccc(-c3nn[nH]n3)c2)C1)c1cccc2ccccc12 [Example 1, (1S,3R)-N-[(1R)-1-(Naphthalen-1-yl)ethyl]-3-[3-(2H-tetrazol-5-yl)phenyl]cyclopentanamine hydrochloride] | 0.30 | 
10 | C[C@@H](N[C@H]1CC[C@@H](c2ccc(-c3nn[nH]n3)cc2)C1)c1cccc2ccccc12 [Example 3, (1S,3R)-N-[(1R)-1-(Naphthalen-1-yl)ethyl]-3-[4-(2H-tetrazol-5-yl)phenyl]cyclopentanamine hydrochloride] | 0.18 | inhibition in vivo at 10 mg/kg [1, 2]: ≥ 30%
11 | C[C@@H](NC1CC[C@H](c2ccc(-c3nn[nH]n3)cc2)C1)c1cccc2ccccc12 (stereo partly drawn) [Example 4, (3S)-N-[(1R)-1-(Naphthalen-1-yl)ethyl]-3-[4-(2H-tetrazol-5-yl)phenyl]cyclopentanamine hydrochloride] | 0.33 | 
12 | C[C@@H](N[C@H]1CC[C@@H](c2ccc(C(=O)NCC(=O)O)cc2)C1)c1cccc2ccccc12 [Example 5, N-{4-[(1R,3S)-3-{[(1R)-1-(Naphthalen-1-yl)ethyl]amino}cyclopentyl]benzoylglycine hydrochloride] | 0.52 | 
13 | C[C@@H](N[C@H]1CC[C@@H](c2cccc(CC(=O)O)c2)C1)c1cccc2ccccc12 [Example 7, {3-[(1R,3S)-3-{[(1R)-1-(Naphthalen-1-yl)ethyl]amino}cyclopentyl]phenyl}acetic acid hydrochloride] | 0.26 | inhibition in vivo at 10 mg/kg [1, 2]: ≥ 30%
14 | C[C@@H](N[C@H]1CC[C@@H](c2ccc(CC(=O)O)cc2)C1)c1cccc2ccccc12 [Example 8, {4-[(1R,3S)-3-{[(1R)-1-(Naphthalen-1-yl)ethyl]amino}cyclopentyl]phenyl}acetic acid hydrochloride] | 0.61 | inhibition in vivo at 10 mg/kg [1, 2]: ≥ 30%
15 | C[C@@H](N[C@H]1CC[C@@H](c2ccc(CCC(=O)O)cc2)C1)c1cccc2ccccc12 [Example 9, 3-{4-(1R,3S)-3-{[(1R)-1-(Naphthalen-1-yl)ethyl]amino}cyclopentyl]phenyl}propanoic acid hydrochloride] | 0.38 | 
16 | C[C@@H](N[C@H]1CC[C@@H](c2ccc(OCC(=O)O)cc2)C1)c1cccc2ccccc12 [Example 10, {4-[(1R,3S)-3-{[(1R)-1-(Naphthalen-1-yl)ethyl]amino}cyclopentyl]phenoxy}acetic acid hydrochloride] | 0.28 | inhibition in vivo at 10 mg/kg [1, 2]: ≥ 30%
17 | C[C@@H](N[C@H]1CC[C@@H](c2cccc(OCC(=O)O)c2)C1)c1cccc2ccccc12 [Example 12, {3-[(1R,3S)-3-{[(1R)-1-(Naphthalen-1-yl)ethyl]amino}cyclopentyl]phenoxy}acetic acid hydrochloride] | 0.36 | 
18 | C[C@@H](N[C@H]1CC[C@@H](c2ccc(OCC(=O)O)cc2)C1)c1ccc(F)c2cc(F)ccc12 [Example 23, {4-[(1R,3S)-3-{[(1R)-1-(4,6-Difluoronaphthalen-1-yl)ethyl]amino}cyclopentyl]phenoxy}acetic acid] |  | inhibition in vivo at 0.3 mg/kg ([1]; male SD rats, oral, 0.3 mg/kg, 4 hours after administration): ≥ 20%
19 | C[C@@H](N[C@H]1CC[C@H](c2ccc(CCC(=O)O)cc2)C1)c1cccc2ccccc12 [Example 29, 3-{4-[(1S,3S)-3-[(1R)-1-(4-Naphthalen-1-yl)ethyl]amino}cyclopentyl]phenyl}propanoic acid hydrochloride] | 0.30 | 
20 | C[C@@H](N[C@H]1CC[C@@H](c2ccc(NCC(=O)O)cc2)C1)c1ccc(F)c2ccccc12 [Example 35, N-{4-[(1R,3S)-3-{[(1R)-1-(4-Fluoronaphthalen-1-yl)ethyl]amino}cyclopentyl]phenyl}glycine 0.3 hydrochloride] |  | inhibition in vivo at 10 mg/kg ([1]; po, 4 h): ≥ 30%
